From ChEMBL document CHEMBL5131517 (ACS Med Chem Lett, 2022)

Experiments:
Type in all cases: functional, cell-based
[1] = molecular target: T1, 5-hydroxytryptamine receptor 2C (Homo sapiens) (UniProt P28335); test: Agonist activity at human 5HT2C receptor stably expressed in Flp-In-T-REx-293 cells assessed as maximal Gq-mediated calcium flux by Fluo-4 direct dye based FLIPR Tetra assay relative to control
T1 sequence (whole entry): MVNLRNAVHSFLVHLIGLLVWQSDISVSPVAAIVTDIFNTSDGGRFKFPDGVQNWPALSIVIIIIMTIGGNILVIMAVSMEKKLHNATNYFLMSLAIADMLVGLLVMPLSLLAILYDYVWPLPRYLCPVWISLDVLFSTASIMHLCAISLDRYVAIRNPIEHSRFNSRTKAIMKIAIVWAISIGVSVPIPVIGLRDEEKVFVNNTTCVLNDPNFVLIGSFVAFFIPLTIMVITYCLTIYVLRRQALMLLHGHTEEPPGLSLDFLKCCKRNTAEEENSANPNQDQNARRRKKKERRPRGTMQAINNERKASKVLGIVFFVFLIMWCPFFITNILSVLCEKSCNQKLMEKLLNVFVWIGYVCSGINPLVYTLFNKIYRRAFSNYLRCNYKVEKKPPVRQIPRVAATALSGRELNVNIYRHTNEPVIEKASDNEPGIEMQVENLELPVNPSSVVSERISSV

[2] = molecular target: T2, 5-hydroxytryptamine receptor 2A (Homo sapiens, UniProt P28223); test: Agonist activity at human 5HT2A receptor stably expressed in Flp-In-T-REx-293 cells assessed as maximal Gq-mediated calcium flux by Fluo-4 direct dye based FLIPR Tetra assay relative to control
T2 sequence (P28223 whole entry): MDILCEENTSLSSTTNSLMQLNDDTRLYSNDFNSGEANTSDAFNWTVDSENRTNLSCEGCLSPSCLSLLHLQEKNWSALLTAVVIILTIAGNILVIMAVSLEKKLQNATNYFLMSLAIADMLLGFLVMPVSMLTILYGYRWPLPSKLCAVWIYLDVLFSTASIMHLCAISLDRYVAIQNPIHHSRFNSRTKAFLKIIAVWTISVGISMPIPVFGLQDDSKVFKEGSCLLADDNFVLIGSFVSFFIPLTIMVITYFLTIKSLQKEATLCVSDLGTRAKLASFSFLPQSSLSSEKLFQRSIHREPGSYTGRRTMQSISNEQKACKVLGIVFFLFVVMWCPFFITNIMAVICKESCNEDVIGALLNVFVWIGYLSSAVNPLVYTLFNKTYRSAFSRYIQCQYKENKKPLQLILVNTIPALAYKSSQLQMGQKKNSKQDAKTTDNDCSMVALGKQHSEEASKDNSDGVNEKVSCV

[3] = molecular target: T2, 5-hydroxytryptamine receptor 2A; test: Agonist activity at human 5HT2A receptor stably expressed in Flp-In-T-REx-293 cells assessed as increase in Gq-mediated calcium flux by Fluo-4 direct dye based FLIPR Tetra assay
[4] = molecular target: T3, 5-hydroxytryptamine receptor 2C (Homo sapiens, UniProt P28335); test: Agonist activity at human 5HT2C receptor stably expressed in Flp-In-T-REx-293 cells assessed as increase in Gq-mediated calcium flux by Fluo-4 direct dye based FLIPR Tetra assay
T3 sequence (P28335 whole entry): T1 sequence (whole entry)

Structure (SMILES)	Emax ([1]; filed as agonist) [%]	Emax ([2]; filed as agonist) [%]	EC50 [3] [nM]	EC50 ([4]; read-out: EC50) [nM]	EC50 ([4]; read-out: pEC50 (converted)) [nM]	Emax [2] [%]	Emax [1] [%]
Clc1ccc2[nH]c3c(c2c1)CCNC3CCc1ccccc1 (stereo unspecified)	98.5	101	64	15.8	–	–	–
Clc1ccc2[nH]c3c(c2c1)CCNC3c1cncnc1 (stereo unspecified)	–	–	898	420	–	32.1	38.7
Clc1ccc2[nH]c3c(c2c1)CCNC3c1ccccc1 (stereo unspecified)	98	83.9	248	68.9	–	–	–
Cc1ccc(C2NCCc3c2[nH]c2ccc(F)cc32)cc1 (stereo unspecified)	85.4	–	208	2060	–	39.9	–
Cc1noc(C)c1C1NCCc2c1[nH]c1ccc(Cl)cc21 (stereo unspecified)	104	84.5	513	191	–	–	–
Fc1ccc2[nH]c3c(c2c1)CCNC3c1ccccc1F (stereo unspecified)	81	48.9	302	1010	–	–	–
Fc1ccc2[nH]c3c(c2c1)CCNC3c1nccs1 (stereo unspecified)	–	–	–	1260	–	–	39.4
Fc1ccc2[nH]c3c(c2c1)CCNC3CCc1ccccc1 (stereo unspecified)	91.3	–	812	467	–	31.7	–
Clc1ccc2[nH]c3c(c2c1)CCNC3c1ccccc1Cl (stereo unspecified)	109	95.3	12.8	12.6	–	–	–
Clc1ccc2[nH]c3c(c2c1)CCNC3c1ccncc1Cl (stereo unspecified)	–	57.1	849	2810	–	–	27.3
CCCC1NCCc2c1[nH]c1ccc(F)cc21 (stereo unspecified)	–	–	> 10000	> 10000	–	–	–
Fc1ncccc1C1NCCc2c1[nH]c1ccc(Cl)cc21 (stereo unspecified)	75.2	56.1	346	1060	–	–	–
Fc1ccc2[nH]c3c(c2c1)CCNC3c1ccccc1 (stereo unspecified)	102	86.5	88.5	22.4	–	–	–
Fc1ccc2[nH]c3c(c2c1)CCNC3c1cc2ccccc2s1 (stereo unspecified)	110	40	1550	912	–	–	–
Fc1ccccc1C1NCCc2c1[nH]c1ccc(Cl)cc21 (stereo unspecified)	–	–	8000	1160	–	23.2	13.9
Fc1ccc2[nH]c3c(c2c1)CCNC3c1ccc2ccccc2c1 (stereo unspecified)	103	79.1	195	186	–	–	–
NCCc1c[nH]c2ccc(O)cc12	–	100	–	–	–	–	–
Fc1ccc2[nH]c3c(c2c1)CCNC3c1ccccc1Br (stereo unspecified)	75.1	–	98	2100	–	10.5	–

Structure (SMILES)	Emax ([1]; filed as agonist) [%]	Emax ([2]; filed as agonist) [%]	EC50 [3] [nM]	EC50 ([4]; read-out: EC50) [nM]	EC50 ([4]; read-out: pEC50 (converted)) [nM]	Emax [2] [%]	Emax [1] [%]
Cc1cccc(C2NCCc3c2[nH]c2ccc(F)cc32)c1 (stereo unspecified)	114	–	160	306	–	39.9	–
COc1ccc2cc(C3NCCc4c3[nH]c3ccc(Cl)cc43)ccc2c1 (stereo unspecified)	93.7	66.8	1320	1060	–	–	–
Fc1ccc2[nH]c3c(c2c1)CCNC3C(c1ccccc1)c1ccccc1 (stereo unspecified)	103	92.5	1910	954	–	–	–
CCC1NCCc2c1[nH]c1ccc(Cl)cc21 (stereo unspecified)	80.8	74.3	398	7940	–	–	–
Fc1ccc2[nH]c3c(c2c1)CCNC3c1cccnc1F (stereo unspecified)	–	40.9	390	4030	–	–	30.2
Clc1ccc2[nH]c3c(c2c1)CCNC3c1ccc(Br)s1 (stereo unspecified)	104	62.4	912	447	–	–	–
Clc1ccc2[nH]c3c(c2c1)CCNC3c1cc2ccccc2s1 (stereo unspecified)	105	88	151	39	–	–	–
CCC1NCCc2c1[nH]c1ccc(O)cc21 (stereo unspecified)	97.6	85.1	195	61	–	–	–
Oc1ccc2[nH]c3c(c2c1)CCNC3c1ccccc1O (stereo unspecified)	103	–	–	–	–	26.9	–
Cc1noc(C)c1C1NCCc2c1[nH]c1ccc(F)cc21 (stereo unspecified)	111	90.7	239	50.1	–	–	–
Clc1ccc2[nH]c3c(c2c1)CCNC3c1ccccc1Br (stereo unspecified)	98.4	91.4	403	95.2	–	–	–
Clc1ccc2[nH]c3c(c2c1)CCNC3C(c1ccccc1)c1ccccc1 (stereo unspecified)	106	88.1	1350	3240	0.324	–	–
Clc1ccc2[nH]c3c(c2c1)CCNC3c1ccc2ccccc2c1 (stereo unspecified)	102	96.5	15.1	24.5	–	–	–
Cc1cccc(C2NCCc3c2[nH]c2ccc(Cl)cc32)c1 (stereo unspecified)	89.1	63.1	481	256	–	–	–
Fc1ccc2[nH]c3c(c2c1)CCNC3c1cncnc1 (stereo unspecified)	101	95.1	–	–	–	–	–
Clc1ccc2[nH]c3c(c2c1)CCNC3Cc1ccccc1 (stereo unspecified)	–	56.1	2620	–	–	–	–
Fc1ccc2[nH]c3c(c2c1)CCNC3Cc1ccccc1 (stereo unspecified)	–	44.4	1330	–	–	–	–

Other lines, results leading:

Emax ([1]; filed as agonist) [%]	Emax ([2]; filed as agonist) [%]	EC50 [3] [nM]	EC50 ([4]; read-out: EC50) [nM]	EC50 ([4]; read-out: pEC50 (converted)) [nM]	Emax [2] [%]	Emax [1] [%]	Structure (SMILES)
104	99.9	58.2	29.8	30.2	–	–	Oc1ccc(C2NCCc3c2[nH]c2ccc(F)cc32)cc1 (stereo unspecified)
–	–	2510	–	–	26.3	–	Oc1ccc2[nH]c3c(c2c1)CCNC3c1ccccc1 (stereo unspecified)
95.4	93.4	223	148	–	–	–	Oc1cccc(C2NCCc3c2[nH]c2ccc(O)cc32)c1 (stereo unspecified)
101	88.4	216	77	–	–	–	Oc1ccc2[nH]c3c(c2c1)CCNC3c1cc(F)ccc1O (stereo unspecified)
114	103	0.5	0.8	–	–	–	COc1ccc(C2NCCc3c2[nH]c2ccc(O)cc32)c(O)c1 (stereo unspecified)
95	–	312	1130	–	11.2	–	Cc1ccc(C2NCCc3c2[nH]c2ccc(O)cc32)cc1 (stereo unspecified)
103	92.7	51.7	15.3	–	–	–	Oc1ccccc1C1NCCc2c1[nH]c1ccc(Cl)cc21 (stereo unspecified)
99.1	60.9	244	191	–	–	–	Cc1cccc(C2NCCc3c2[nH]c2ccc(O)cc32)c1 (stereo unspecified)
103	87.3	91.2	20.4	–	–	–	Fc1ccc2[nH]c3c(c2c1)CCNC3C1CCCCC1 (stereo unspecified)
–	45.8	139	–	–	–	–	Oc1ccc2[nH]c3c(c2c1)CCNC3CCc1ccccc1 (stereo unspecified)
63.8	42.8	371	295	–	–	–	Clc1ccc2[nH]c3c(c2c1)CCNC3C1CCOCC1 (stereo unspecified)
123	83.2	208	130	–	–	–	Oc1cccc(C2NCCc3c2[nH]c2ccc(F)cc32)c1 (stereo unspecified)
–	74.1	281	959	–	–	28.4	Oc1ccc2[nH]c3c(c2c1)CCNC3C1CCCCC1 (stereo unspecified)
109	102	3.8	7.6	–	–	–	COc1cc(OC)c(C2NCCc3c2[nH]c2ccc(O)cc32)cc1OC (stereo unspecified)
42.3	–	354	891	–	34.1	–	Fc1ccc2[nH]c3c(c2c1)CCNC3C1CCOCC1 (stereo unspecified)
99.4	80	159	152	–	–	–	Oc1ccc(C2NCCc3c2[nH]c2ccc(O)cc32)cc1 (stereo unspecified)
104	85.9	455	194	–	–	–	Oc1ccc2[nH]c3c(c2c1)CCNC3c1cc(Br)ccc1O (stereo unspecified)
87.1	100	79	97	–	–	–	Cn1ccnc1C1NCCc2c1[nH]c1ccc(O)cc21 (stereo unspecified)
100	100	120	76.4	–	–	–	Oc1ccc2[nH]c3c(c2c1)CCNC3c1ccccc1C(F)(F)F (stereo unspecified)
97.1	47.6	1570	754	–	–	–	Oc1ccc2[nH]c3c(c2c1)CCNC3c1cc(Cl)ccc1O (stereo unspecified)
97	44.7	346	294	–	–	–	Oc1ccc2[nH]c3c(c2c1)CCNC3c1cccs1 (stereo unspecified)
–	–	1420	–	–	14.3	–	Oc1ccc2[nH]c3c(c2c1)CCNC3c1ccccc1Cl (stereo unspecified)
109	93.1	116	66.5	–	–	–	Oc1c(Br)cccc1C1NCCc2c1[nH]c1ccc(F)cc21 (stereo unspecified)
107	97.9	74.5	68.6	–	–	–	Oc1c(Br)cccc1C1NCCc2c1[nH]c1ccc(Cl)cc21 (stereo unspecified)
100	67.8	364	173	–	–	–	Oc1ccc2[nH]c3c(c2c1)CCNC3c1ccc(Br)cc1O (stereo unspecified)
–	50.1	646	> 10000	–	–	–	CCCC1NCCc2c1[nH]c1ccc(Cl)cc21 (stereo unspecified)
–	–	269	–	–	21.5	–	COc1ccccc1C1NCCc2c1[nH]c1ccc(O)cc21 (stereo unspecified)
